# Reference: ChEMBL document CHEMBL3259800, “Design, synthesis and biological evaluation of novel 4-alkapolyenylpyrrolo[1,2-a]quinoxalines as antileishmanial agents--part III” (Eur J Med Chem, 2014)
# Key:
# Leishmania mexicana = experiment: Antimicrobial activity against Leishmania mexicana MHOM/MX/95/NAN1 promastigotes after 96 hrs by resazurin-based assay; format: functional, organism-based; settings: MHOM/MX/95/NAN1, 96 h
# [1] = Selectivity index, ratio of CC50 for human HepG2 cells to IC50 for chloroquine-resistant and mefloquine-sensitive Plasmodium falciparum W2; format: functional
# [2] = test system: Trypanosoma brucei brucei; experiment: Antimicrobial activity against Trypanosoma brucei brucei Antat 1.1 after 24 hrs by haemocytometric analysis; format: functional, organism-based; settings: Antat 1.1, 24 h
# Plasmodium falciparum [3] = experiment: Antimicrobial activity against chloroquine and mefloquine-sensitive Plasmodium falciparum 3D7 infected in human erythrocytes after 48 hrs by SYBR Green I assay; format: functional, organism-based; settings: 3D7, 48 h
# [4] = Selectivity index, ratio of CC50 for mouse J774A1 cells to IC50 for Leishmania donovani MHOM/IN/00/DEVI promastigotes; format: functional, J774.A1
# Plasmodium falciparum [5] = experiment: Antimicrobial activity against chloroquine-resistant and mefloquine-sensitive Plasmodium falciparum W2 infected in human erythrocytes after 48 hrs by SYBR Green I assay; format: functional, organism-based; settings: W2, 48 h
# [6] = Selectivity index, ratio of CC50 for mouse J774A1 cells to IC50 for Leishmania mexicana MHOM/MX/95/NAN1 promastigotes; format: functional, J774.A1
# [7] = Selectivity index, ratio of CC50 for human HepG2 cells to IC50 for Trypanosoma brucei brucei Antat 1.1; format: functional
# Leishmania donovani = experiment: Antimicrobial activity against Leishmania donovani MHOM/IN/00/DEVI promastigotes after 72 hrs by MTT assay; format: functional, organism-based
# [8] = Selectivity index, ratio of CC50 for human HepG2 cells to IC50 for Leishmania major MHOM/IL/81/BNI promastigotes; format: functional
# Leishmania major = experiment: Antimicrobial activity against Leishmania major MHOM/IL/81/BNI promastigotes after 96 hrs by resazurin-based assay; format: functional, organism-based
# [9] = Cytotoxicity against human HepG2 cells after 72 hrs by MTT assay; format: cell-based
# [10] = Selectivity index, ratio of CC50 for human HepG2 cells to IC50 for Leishmania mexicana MHOM/MX/95/NAN1 promastigotes; format: functional
# [11] = Selectivity index, ratio of CC50 for human HepG2 cells to IC50 for chloroquine and mefloquine-sensitive Plasmodium falciparum 3D7; format: functional
# [12] = Cytotoxicity against mouse J774A1 cells after 72 hrs by MTT assay; format: cell-based, J774.A1
# [13] = Selectivity index, ratio of CC50 for human HepG2 cells to IC50 for Leishmania donovani MHOM/IN/00/DEVI promastigotes; format: functional
# [14] = Selectivity index, ratio of CC50 for mouse J774A1 cells to IC50 for Leishmania major MHOM/IL/81/BNI promastigotes; format: functional, J774.A1
Compound,IC50 (Leishmania mexicana) [µM],Ratio CC50/IC50 [1],IC50 [2] [µM],IC50 (Plasmodium falciparum [3]) [µM],Ratio CC50/IC50 [4],IC50 (Plasmodium falciparum [5]) [µM],Ratio CC50/IC50 [6],Ratio CC50/IC50 [7],IC50 (Leishmania donovani) [µM],Ratio CC50/IC50 [8],IC50 (Leishmania major) [µM],CC50 at 72 h [9] [µM],Ratio CC50/IC50 [10],Ratio CC50/IC50 [11],CC50 at 72 h [12] [µM],Ratio CC50/IC50 [13],Ratio CC50/IC50 [14]
C/C=C/C=C/c1nc2ccccc2n2cccc12,7.6,4.1,2.4,2.4,0.4,2.5,0.6,4.3,9.8,2.2,4.7,10.3,1.4,4.3,4.3,1.1,0.9
C/C=C/C=C/c1nc2cc(OC)ccc2n2cccc12,3.3,1.7,2.1,3.3,0.5,3.4,0.8,2.8,5.3,1.9,3,5.8,1.8,1.8,2.5,1.1,0.8
C/C=C/C=C/c1nc2ccc(OC)cc2n2cccc12,3.7,3.6,1.8,1.5,1,2.4,1.4,4.8,5.4,3.2,2.7,8.7,2.4,5.8,5.3,1.6,2
C/C=C/C=C/c1nc2cccc(OC)c2n2cccc12,8,2.5,2.2,3.2,0.4,2.6,0.3,2.9,7.2,2,3.3,6.5,0.8,2,2.7,0.9,0.8
CCC/C=C/C=C/c1nc2ccccc2n2cccc12,12.1,8.5,,2.5,0.6,1.1,0.4,,7.6,2.4,3.9,9.3,0.8,3.7,4.7,1.2,1.2
CCC/C=C/C=C/c1nc2cc(OC)ccc2n2cccc12,3.2,11,1.9,2.3,0.8,0.8,2,4.6,8.6,3.1,2.8,8.8,2.8,3.8,6.5,1,2.3
CCC/C=C/C=C/c1nc2ccc(OC)cc2n2cccc12,5.1,1.8,,3.3,1,11,1.5,,7.6,2.7,7.4,20.1,4,6.1,7.8,2.6,1.1
CCC/C=C/C=C/c1nc2cccc(OC)c2n2cccc12,10.3,13.4,,1.6,0.7,1.3,0.7,,9.9,4.5,3.9,17.4,1.7,10.9,7.1,1.8,1.8
